# Measured values published in patent US20240051956A1, “SOS1 INHIBITORS AND USES THEREOF” (QILU REGOR THERAPEUTICS INC., priority 2020, published 2024).
# Read-outs that look alike come from different tables or passages of the source.
# Tests used:
# [1] = test system: NCI-H358; assay: Cell proliferation assay, 3D, CellTiter-Glo 3D; format: cell-based, human; settings: for IC50: Homo sapiens, read-out: anit-prolif. H358 IC50
# Description: b. Cell Proliferation Assay
# Low IC50 values are indicative of high potency of the compounds in this assay setting.
# Cell proliferation assay is performed in three-dimensional (3D) ultra-low conditions with the human cell line NCI-H358, a human non-small cell lung cancer (NSCLC) cell line with a KRAS G12C mutation.
# • 96-well Clear Round Bottom Ultra-Low Attachment Microplate (Corning, Cat. 7007) • 96-well Flat Clear Bottom White Polystyrene TC-treated Microplates (Corning, Cat. 3610) • RPMI-1640 Medium (Gibco, Cat. 22400105) • Fetal Bovine Serum (FBS) (Gibco, Cat. 10099141C) • 0.25% Trypsin-EDTA (Gibco, Cat. 25200056) • Penicillin-Streptomycin (Gibco, Cat. 15140122) • CellTiter-Glo 3D Cell Viability Assay (Promega, Cat. G9683)
# NCI-H358 cells (ATCC, Cat. CRL-5807) are grown in cell culture flasks using RPMI medium supplemented with 10% FBS. Cells are incubated at 37° C. and 5% C02 in a humidified atmosphere, with sub-cultivation performed twice a week. Cells are trypsinized, counted and plated in 96-well ultra-low adhesion plates for 3D cell viability determination. The day after plating, serial dilutions of SOS1 inhibitor compounds are made using Tecan D300e Digital Dispenser to evaluate a concentration-dependent effect on cell viability. The concentration of the test compounds covers a range between 5 μM and 0.76 nM with serial 1:3 dilutions in 9 concentrations. 0.5 μL serial dilutions of the compounds are added in duplicates. 3 days later, the CellTiter-Glo 3D Cell Viability Assay is used to measure cell viability effects of SOS1 inhibitor compounds in 3D format. Luminescent intensity is determined using Envision (PerkinElmer). Data is analyzed and IC50 values are calculated using GraphPad Prism.
# [2] = Human liver microsomal stability; format: in vitro ADME; settings: for half-life: human liver microsomes, read-out: Human liver microsomal stability, T1/2; for stability in human liver microsomal assay: in words, compound I-18 vs present compounds
# [3] = biological target: SOS1 and KRAS G12D (Homo sapiens (Human), UniProt Q07889); assay: KRAS::SOS1 AlphaScreen Binding Assay; settings: SOS1 (564-1049), KRAS G12D (1-169), GDP
# From the text: a. KRAS::SOS1 AlphaScreen Binding Assay
# Low IC50 values of given compounds are indicative of high potency of the SOS1 inhibitor compounds in this assay setting.
# • GST-TEV-SOS1 (564-1049) and His-TEV-Avi-KRAS G12D (1-169) are purchased from Viva Biotech (Shanghai) Ltd. • GDP (Sigma, Cat. G7127) • AlphaLISA Glutathione Acceptor Beads (PerkinElmer, Cat. AL109C) • AlphaScreen Streptavidin Donor Beads (PerkinElmer, Cat. 6760002S) • Assay plates: ProxiPlate-384 Plus, White 384-shallow well Microplate (PerkinElmer, Cat. 6008280)
# SOS1 inhibitor compounds are diluted to a final start concentration of […]. Serial dilutions of compounds are made using Tecan D300e Digital Dispenser in 9 concentrations with serial 1:3 dilutions. 100 nL of compound solution is transferred to the 384-well assay plate per well, covering a range between 1 μM and 0.15 nM minimum in duplicate. 10 nM (final assay concentration) KRAS G12D, 5 nM (final assay concentration) SOS1 and 10 μM (final assay concentration) GDP are mixed in assay buffer, and 5 μL of KRAS::SOS1 GDP mix is added into the assay plate to the 100 nL of compound solution (final dilution in the assay 1:100, final DMSO concentration 1%). After a 30 min incubation, AlphaLISA Glutathione Acceptor Beads and AlphaScreen Streptavidin Donor Beads are mixed in assay buffer at a concentration of 5 µg/mL (final assay concentration), and 5 μL of bead mix is added into the assay plate. Plates are kept at room temperature in a darkened incubator for 3 h. After a 3 h incubation, the signal is determined using Envision (PerkinElmer). The excitation wavelength is 680 nm, and emission 615 nm. IC50 values are calculated and analyzed using GraphPad Prism.
# [4] = 72 h, NCI-H358 (KRAS G12C), 3D ultra-low attachment, 3 days
# Chain of SOS1 and KRAS G12D (Q07889 564-1049, stated change not applied): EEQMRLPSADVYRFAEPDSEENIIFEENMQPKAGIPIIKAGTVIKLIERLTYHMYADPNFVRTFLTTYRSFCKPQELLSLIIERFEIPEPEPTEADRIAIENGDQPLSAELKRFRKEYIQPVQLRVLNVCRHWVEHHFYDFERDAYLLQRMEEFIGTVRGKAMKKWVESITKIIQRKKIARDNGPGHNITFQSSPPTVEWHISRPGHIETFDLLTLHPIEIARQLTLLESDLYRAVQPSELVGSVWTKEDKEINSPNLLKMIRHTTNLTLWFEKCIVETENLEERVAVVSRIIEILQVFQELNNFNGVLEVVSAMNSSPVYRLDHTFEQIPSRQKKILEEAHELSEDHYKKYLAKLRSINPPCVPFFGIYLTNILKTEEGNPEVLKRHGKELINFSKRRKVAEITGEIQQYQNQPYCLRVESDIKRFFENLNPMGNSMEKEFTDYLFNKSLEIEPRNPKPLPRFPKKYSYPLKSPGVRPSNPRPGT
Structure (SMILES),"IC50 [1, 4] [µM]","IC50 ([1]; NCI-H358, H358 cells) [µM]",half-life [2] [h],stability in human liver microsomal assay [2],IC50 [3] [µM],"activity in H358 cellular assay ([1]; in words, compound I-18 vs present compounds)"
"Cc1nc(N[C@H](C)c2cccc(C(F)F)c2F)c2cn(N3CCOCC3)c(=O)c(F)c2n1 [Example 29, (R)-4-((1-(3-(difluoromethyl)-2-fluorophenyl)ethyl)amino)-8-fluoro-2-methyl-6-morpholinopyrido[4,3-d]pyrimidin-7 (6H)-one]",≤ 0.1,0.049,2.33,dramatically improved,≤ 0.015,
"Cc1nc(N[C@H](C)c2cccc(C(F)F)c2F)c2cn(N3CCOCC3)c(=O)c(-c3ccc(S(C)(=O)=O)cc3)c2n1 [Example 43, 4-[[(1R)-1-[3-(difluoromethyl)-2-fluoro-phenyl]ethyl]amino]-2-methyl-8-(4-methylsulfonylphenyl)-6-morpholino-pyrido[4,3-d]pyrimidin-7-one]",≤ 0.1,0.053,> 16.7,dramatically improved,≤ 0.015,
Cc1nc(N[C@H](C)c2cccc(C(F)F)c2F)c2cn(N3CCOCC3)c(=O)c(-c3cnn(CCO)c3)c2n1 [Example 53],≤ 0.1,0.06,0.733,dramatically improved,≤ 0.015,
"Cc1nc(N[C@H](C)c2cccc(C(F)(F)F)c2C)c2cn(N3CCOCC3)c(=O)cc2n1 [Example 17, (R)-2-methyl-4-((1-(2-methyl-3-(trifluoromethyl)phenyl)ethyl)amino)-6-morpholinopyrido[4,3-d]pyrimidin-7(6H)-one]",≤ 0.1,0.023,1.83,dramatically improved,≤ 0.015,
"Cc1nc(N[C@H](C)c2cccc(C(F)F)c2F)c2cn(N3CCOCC3)c(=O)cc2n1 [Example 1, 4-[[(1R)-1-[3-(difluoromethyl)-2-fluoro-phenyl]ethyl]amino]-2-methyl-6-morpholino-pyrido[4,3-d]pyrimidin-7-one]",≤ 0.1,0.04,1.4,dramatically improved,≤ 0.015,
Cc1nc(N[C@H](C)c2cccc(C(F)(F)F)c2C)c2cn(N3CCOCC3)c(=O)c(F)c2n1 [Example 30],≤ 0.1,0.028,3.17,dramatically improved,≤ 0.015,
"Cc1nc(N[C@H](C)c2cccc(C(F)F)c2F)c2cn(C3CCOCC3)c(=O)cc2n1 [Example I-18, reference compound]",,0.164,0.05,very poor stability,,weaker activity
Cc1nc(N[C@H](C)c2cccc(C(F)F)c2F)c2cn(N3CCOCC3)c(=O)c(-c3ccc(F)nc3)c2n1 [Example 50],0.1 to 0.5,,,,≤ 0.015,
Cc1nc(N[C@H](C)c2cccc(C(F)F)c2F)c2cn(N3CC4(COC4)C3)c(=O)cc2n1 [Example 9],0.1 to 0.5,,,,≤ 0.015,
Cc1nc(N[C@H](C)c2cccc(C(F)F)c2F)c2cn(N3CCOCC3)c(=O)c(-c3ccc(=O)[nH]c3)c2n1 [Example 49],0.5 to 1,,,,≤ 0.015,
Cc1nc(N[C@H](C)c2cccc(C(F)F)c2F)c2cn(N3C[C@@H](C)O[C@@H](C)C3)c(=O)cc2n1 [Example 5],0.1 to 0.5,,,,≤ 0.015,
Cc1nc(N[C@H](C)c2cccc(C(F)F)c2F)c2cn(N3CCOCC3)c(=O)c(-c3ccc(S(C)(=O)=O)nc3)c2n1 [Example 61],≤ 0.1,0.031,> 16.7,dramatically improved,≤ 0.015,
Cc1nc(N[C@H](C)c2cccc(C(F)F)c2F)c2cn(N3CCN(C(=O)CC#N)CC3)c(=O)cc2n1 [Example 14],0.5 to 1,,,,≤ 0.015,
